Assay results published in patent publication US20250255876A1, “COMPOSITIONS AND METHODS FOR CANCER TREATMENT” (ARIEL SCIENTIFIC INNOVATIONS LTD., priority 2021, published 2025).
“Also recorded” adds a separate entry of the source.

Experiments:
[1] = molecular target: MAD2L2 (Homo sapiens, UniProt Q9UI95); test: Cellular thermal shift assay (CETSA) in 293T cells; assay type: cell-based; details: 50 μM, 1 hour
Procedure: The in vivo binding of MAD2L2 to the small molecule compounds was detected using the cellular thermal shift assay (CETSA), following their standard protocol. Briefly, 293T cells were grown to confluency and treated for 1 hour with the DMSO or selected compounds at 50 µM. Cells were collected and centrifuged for 3 min at 300 g, washed once with PBS, and each pellet was resuspended in 1 ml of PBS supplemented with Merck® 1000×protease inhibitor (539134). The cell suspensions were aliquoted and incubated for 3 min in the VWR XT96 thermal cycler using a gradient from 40°−55° C. Following heating, the tubes were incubated at room temperature for 3 min and then snap frozen in liquid nitrogen. The samples were then lysed via two subsequent freeze-thaw cycles with vortexing, and the lysates were centrifuged at 20,000 g for 20 min at 4° C. Finally, the cleared lysates were boiled in Laemmli buffer for 5 minutes.
In order to validate that MAD2L2 is a direct target of c #2 and c #3, the inventors tested the compounds' binding kinetics to a recombinant protein by Field Effect Biosensing (FEB) technology. Briefly, purified GST-MAD2L2 was immobilized onto a […] chip, and the current across the chip is measured to determine the baseline current. Then, a soluble compound was flowed over the chip. Interaction of the soluble and immobilized molecules yields a detectable change in conductance of the biosensor. The Kon and Koff of the interaction were measured over time and were used to calculate the KD. The binding of both c #2 and c #3 to MAD2L2 is in the micromolar range: 31.08 μM and 44.88 μM, respectively (FIG. 13A). […] The in vivo binding of c #2 or c #3 to MAD2L2 was validated by using a cellular thermal shift assay (CETSA), which is a reliable reporter showing whether a molecule enters the cell and the nucleus and binds to the protein of interest. Briefly, under normal conditions, most of the MAD2L2 protein unfolds, aggregates and disappears from the soluble fraction of the lysate between 46° C. and 49° C. […]

[2] = test system: γH2AX foci in H1975 cells; test: γH2AX foci immunofluorescence, H1975 cells; assay type: cell-based, human; details: for number of γH2AX foci/cell, combined treatment: overnight
Procedure: H1975 and A549 cells were grown on glass coverslips in 12-well plates with the appropriate media, and fixed in 4% paraformaldehyde for 10 minutes at room temperature. Cells were permeabilizedin 0.5% TritonX100 in PBS×1 for 10 minutes at room temperature and then blocked in 5% BSA in 0.1% PBS×1-Tween for 1 hour at room temperature. Anti-phospho-Histone H2A.X primary antibody ([…]; 05-636-25UG) diluted 1:400 in 5% BSA in 0.1% PBS×1-Tween was added for 1 hour at room temperature. Fluorescent-dye conjugated secondary antibody was applied for 1 hour at room temperature. The coverslips were washed between each step with PBS×1. Nuclei were stained with DAPI (1:2000 dilution) at room temperature in the dark for 3 minutes. Coverslips were mounted on glass slides and imaged using an Olympus 1×81 microscope. For all treatments, cells with fewer than 80 foci were scored manually (FIG. 4B), and cells with more than 80 foci and very bright signals were scored automatically by using the “Analyze Particles” function in ImageJ (National Institutes of Health) after setting a suitable threshold.
Next, the inventors examined whether combined treatment of cisplatin with c #2 or c #3 correlates with an increase in DNA damage, which might explain the compound's sensitization effect. A549 and H1975 cell lines were exposed to combined overnight treatment with cisplatin and c #2 or c #3, and the levels of γH2AX foci were monitored. In both cell lines, a clear increase in the number of foci was observed after combined treatment, compared to cells treated with cisplatin or compounds alone (FIG. 12A).
Combined treatment of cisplatin with c #3 correlates with an increase in DNA damage. Levels of γ-H2AX foci, a marker for DNA double-strand breaks, were compared in H1975, A549 and B16F10 cell lines.

[3] = test system: A549 cells; test: Colony survival assay, A549 cells; assay type: cell-based; details: for survival rate, combined treatment: A549, 5 μM cisplatin + 50 μM compound; for toxicity / cell viability, compound alone: A549, 50 μM compound alone; for sensitization effect to cisplatin: A549, cisplatin + 50 μM compound; for cell survival with cisplatin plus inhibitor: A549, varying cisplatin, 48 hours
Procedure: H1975 cells were plated in 24-well plates at 50,000 cells/well (for 50 µM inhibitor treatment) or 20,000 cells/well (for […] inhibitor treatment). U2OS and A549 cells were plated in 24-well plates at 5000 cells/well. The next day, cells were treated with varying concentrations of cisplatin, either with or without added inhibitor compound. After 48 hours of cisplatin+compound treatment, the cells were washed 3 times with PBS×1 and fresh media applied. After 4 days of recovery, the cells were stained with methylene blue and imaged using a Nikon SMZ25 stereomicroscope. The images were analyzed using the ImageJ (National Institutes of Health) area measurement tool to quantify total colony size in each well.
Cells were plated in 24-well plates at 50,000 cells/well (H1975 line) or 10,000 cells/well (A549 line). The next day, cells were treated with varying concentrations of cisplatin ([…]), with or without 50 μM compound. For the untreated control wells containing only cisplatin, DMSO was applied in place of the compound. After 48 hours of cisplatin+compound treatment, the cells were washed 3 times with PBS and fresh media was applied. After 4 days of recovery, the cells were stained with methylene blue and imaged using a Nikon SMZ25 stereomicroscope. The images were analyzed using the ImageJ (National Institutes of Health) area measurement tool to quantify total colony size in each well.
In order to assess the ability of the selected compounds to sensitize cells during cisplatin treatment, the inventors established a colony survival assay comparing the viability of cells treated with cisplatin alone or with combined treatment of cisplatin and 50 μM compound. For the compound screen, we used two lung cancer cell lines: human non-small lung carcinoma H1975 cells, and epithelial lung adenocarcinoma A549 cells. Out of ten compounds tested, compounds c #2 and c #3 were identified with the most significant sensitization effect and were chosen for future characterization. […] Survival rate was reduced from 90% in 5 μM cisplatin treatment to 50% survival in the combined treatment (FIGS. 11A-B). H1975 cells presented similar behavior following doxorubicin treatment (FIG. 11C). IC50 was calculated using linear regression, presenting a clear reduction of cisplatin's IC50 in all treatments.

[4] = H1975, 5 μM cisplatin + 50 μM compound

Sequence of MAD2L2 (Q9UI95 whole entry): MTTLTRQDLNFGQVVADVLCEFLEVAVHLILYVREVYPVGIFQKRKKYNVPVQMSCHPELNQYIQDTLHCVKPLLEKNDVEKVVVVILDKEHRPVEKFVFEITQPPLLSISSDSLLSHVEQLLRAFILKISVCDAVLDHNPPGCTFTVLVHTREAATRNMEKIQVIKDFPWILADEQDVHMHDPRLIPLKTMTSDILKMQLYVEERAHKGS

| Compound | stabilization of folded MAD2L2 (in words) [1] | MAD2L2 aggregation temperature ([1]; normal conditions between 46° C. and 49° C.) | number of γH2AX foci/cell, combined treatment [2, 4] | survival rate, combined treatment [3] [%] | toxicity / cell viability, compound alone [3] | toxicity / cell viability, compound alone ([3]; listed as c #2) | sensitization effect to cisplatin [3] | cell survival with cisplatin plus inhibitor [3] | stabilization of folded MAD2L2 (in words) ([1]; listed as c #3) | increase in γ-H2AX foci/cell in co-treated cells ([2]; H1975, 5 μM cisplatin + 50 μM c #3, 16 h) [fold] | cells with more than 80 foci or very bright signal, combined treatment [2, 4] | γ-H2AX signal, c #3 alone ([2]; H1975, c #3 alone) | toxicity / cell viability, compound alone ([3]; listed as c #3) |
| --- | --- | --- | --- | --- | --- | --- | --- | --- | --- | --- | --- | --- | --- |
| CNc1nc(N2CCCCC2)nc(-n2cnc(SCC(N)=O)n2)n1 [Compound 2] | stabilize the folded MAD2L2 protein | milder change in MAD2L2's aggregation temperature | significant increase in the number of γH2AX foci/cell | 50 | no reduction in cell viability | caused no toxicity | approximately twofold sensitization effect | reduction in cell survival | – | – | – | – | – |
| Cc1oc(-c2ccco2)nc1CC(=O)N[C@@H](C(=O)O)c1ccccc1 [Compound 3] | – | – | significant increase in the number of γH2AX foci/cell | 50 | no reduction in cell viability | – | approximately twofold sensitization effect | reduction in cell survival | stabilize the folded MAD2L2 protein; also recorded: stronger binding affinity to MAD2L2 than c #2 | 2 | significantly more abundant | no effect on the γ-H2AX signal | caused no toxicity |
